This is an account of results in the Kinase Knowledgebase extract (Sharma et al. 2016).

Structures are written as SMILES.

As a reminder, the IC50 is the point on the concentration scale where inhibition reaches its midpoint. Low values mean higher potency, high ones lower potency.

Assay [1] addresses MAPK14 (human) (UniProt Q16539). The experiment in a line: Inhibition of IL-1 Production in Whole Blood.
Assay [2] shares this target. The experiment in a line: Inhibition of IL-6 Production in Whole Blood.
For assay [3] the target is unchanged. The experiment in a line: Inhibition of TNF Production in Whole Blood.
Assay [4] has the same target. The experiment in a line: Inhibition of TNF-alpha Production in LPS-Stimulated PBMCs. The note with it: pbmc.

MAPK14 (human), sequence (Q16539 whole entry, looked up): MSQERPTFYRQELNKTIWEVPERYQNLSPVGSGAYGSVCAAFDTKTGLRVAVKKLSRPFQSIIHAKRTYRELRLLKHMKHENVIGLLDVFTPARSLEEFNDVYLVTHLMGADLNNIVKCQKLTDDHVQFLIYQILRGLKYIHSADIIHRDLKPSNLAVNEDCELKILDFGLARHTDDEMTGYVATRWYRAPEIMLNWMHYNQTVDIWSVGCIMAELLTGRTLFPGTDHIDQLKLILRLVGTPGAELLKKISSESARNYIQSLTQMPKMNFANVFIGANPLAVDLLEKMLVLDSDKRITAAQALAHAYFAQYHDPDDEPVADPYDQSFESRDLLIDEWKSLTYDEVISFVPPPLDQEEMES

Turning to `NC(=O)C(c1cccc(-c2cccc3ccccc23)n1)c1c(Cl)cccc1Cl` (centres undefined), the IC50 at MAPK14 (human) [1], at MAPK14 (human) [2] and against MAPK14 (human) [3] was more than 500 nM in each case.

`NC(=O)N(c1cccc(-c2ccc(F)cc2)n1)c1c(F)cccc1F`: the IC50 at MAPK14 (human) [1], at MAPK14 (human) [2] and at MAPK14 (human) [3] was more than 500 nM in each case.

`Cc1cc(F)ccc1-c1cccc(N(C(N)=O)c2c(Cl)cccc2Cl)n1`: the 50% inhibitory concentration (IC50) against MAPK14 (human) [1] was more than 500 nM; against MAPK14 (human) [2], 250 to 500 nM; on MAPK14 (human) [3], more than 500 nM.

With `COc1ccc(C2=C3C=CC(Sc4ccc(F)cc4)=NN3CNC2=O)c(Cl)c1OC`, the IC50 at MAPK14 (human) [1], on MAPK14 (human) [2] and on MAPK14 (human) [3] was more than 500 nM throughout.

For `O=C(CN1CCOCC1)Nc1ccc(C2=C3C=CC(Sc4ccc(F)cc4)=NN3CNC2=O)c(Cl)c1`, the IC50 is more than 500 nM at MAPK14 (human) [1], 250 to 500 nM against MAPK14 (human) [2] and more than 500 nM at MAPK14 (human) [3].

With `Cc1cc(F)ccc1-c1cccc(N(C(N)=O)c2cc3c(cc2Cl)OCO3)n1`, the IC50 at MAPK14 (human) [1], against MAPK14 (human) [2] and against MAPK14 (human) [3] was more than 500 nM throughout.

Consider `Nc1ccccc1SC1=NN2CNC(=O)C(c3c(Cl)cccc3Cl)=C2C=C1`, for which the IC50 against MAPK14 (human) [1], against MAPK14 (human) [2] and against MAPK14 (human) [3] was more than 500 nM throughout.

As to `Nc1ccc(Cl)c(C2=C3C=CC(Sc4ccc(F)cc4)=NN3CNC2=O)c1Cl`, the IC50 on MAPK14 (human) [1], against MAPK14 (human) [2] and at MAPK14 (human) [3] was more than 500 nM each time.

On to `CC(=O)Nc1ccc(C2=C3C=CC(Sc4ccc(F)cc4)=NN3CNC2=O)c(Cl)c1`, for which the half-inhibitory concentration (IC50) against MAPK14 (human) [1], against MAPK14 (human) [2] and on MAPK14 (human) [3] was more than 500 nM throughout.

As for `O=C1NCN2N=C(Sc3ccc(F)cc3Cl)C=CC2=C1c1c(Cl)cccc1Cl`, the half-maximal inhibitory concentration (IC50) was 250 to 500 nM against MAPK14 (human) [1], less than 250 nM against MAPK14 (human) [2] and 250 to 500 nM on MAPK14 (human) [3].

On to `COc1ccc(C2=C3C=CC(Sc4ccc(F)cc4)=NN3CNC2=O)c(Cl)c1`, for which the IC50 against MAPK14 (human) [4], at MAPK14 (human) [1], at MAPK14 (human) [2] and against MAPK14 (human) [3] was more than 500 nM in each case.

For the compound `O=C(CCl)Nc1ccc(C2=C3C=CC(Sc4ccc(F)cc4)=NN3CNC2=O)c(Cl)c1`, the IC50 against MAPK14 (human) [1], at MAPK14 (human) [2] and against MAPK14 (human) [3] was more than 500 nM in each case.

As for `Cc1cc(Cl)ccc1SC1=NN2CNC(=O)C(c3c(Cl)cccc3Cl)=C2C=C1`, the results for the 50% inhibitory concentration (IC50) at MAPK14 (human) [1], against MAPK14 (human) [2] and at MAPK14 (human) [3] were more than 500 nM, 250 to 500 nM and 250 to 500 nM, respectively.

As for `COc1cc(Cl)c(C2=C3C=CC(Sc4ccc(F)cc4)=NN3CNC2=O)cc1OC`, the 50% inhibitory concentration (IC50) against MAPK14 (human) [4] is more than 500 nM.

On to `O=c1ncn2nc(Sc3ccc(F)cc3Cl)ccc2c1-c1c(Cl)cccc1Cl`, for which the IC50 at MAPK14 (human) [1], at MAPK14 (human) [2] and against MAPK14 (human) [3] was 250 to 500 nM in each case.

`O=C1NCN2N=C(Sc3ccc(F)cc3)C=CC2=C1c1cc2c(cc1Cl)OCO2`: the results for the concentration for half-maximal inhibition (IC50) against MAPK14 (human) [1], against MAPK14 (human) [2] and against MAPK14 (human) [3] were 250 to 500 nM, 250 to 500 nM and more than 500 nM, respectively.

On to `O=C1NCN2N=C(Sc3ccc(F)cc3Cl)C=CC2=C1c1cc2c(cc1Cl)OCO2`, for which the half-inhibitory concentration (IC50) is more than 500 nM at MAPK14 (human) [1], 250 to 500 nM against MAPK14 (human) [2] and more than 500 nM against MAPK14 (human) [3].

As to `NC(=O)C(c1cccc(-c2ccccc2)n1)c1c(Cl)cccc1Cl` (centres undefined), the IC50 on MAPK14 (human) [1], against MAPK14 (human) [2] and at MAPK14 (human) [3] was more than 500 nM in each case.

Turning to `Cc1cccc(-c2cccc(C(C(N)=O)c3c(Cl)cccc3Cl)n2)c1` (centres undefined), the 50% inhibitory concentration (IC50) on MAPK14 (human) [4], at MAPK14 (human) [1], at MAPK14 (human) [2] and against MAPK14 (human) [3] was more than 500 nM throughout.

In the case of `O=c1ncn2nc(Sc3ccccn3)ccc2c1-c1c(Cl)cccc1Cl`, the IC50 at MAPK14 (human) [4] and on MAPK14 (human) [1] was more than 500 nM each time.

For `Cc1ccccc1-c1cccc(N(C(N)=O)c2c(Cl)cccc2Cl)n1`, the half-maximal inhibitory concentration (IC50) against MAPK14 (human) [1], at MAPK14 (human) [2] and on MAPK14 (human) [3] was more than 500 nM each time.

Take `Nc1ccc(C2=C3C=CC(Sc4ccc(F)cc4)=NN3CNC2=O)c(Cl)c1`: the figures for the IC50 against MAPK14 (human) [1], against MAPK14 (human) [2] and against MAPK14 (human) [3] were more than 500 nM, 250 to 500 nM and more than 500 nM, respectively.

As to `NC(=O)C(c1cccc(-c2ccccc2CO)n1)c1c(Cl)cccc1Cl` (centres undefined), the half-inhibitory concentration (IC50) against MAPK14 (human) [1], at MAPK14 (human) [2] and at MAPK14 (human) [3] was more than 500 nM in each case.

`Cc1cc(F)ccc1-c1cccc(C(C(N)=O)c2c(Cl)cccc2Cl)n1` (centres undefined): the IC50 on MAPK14 (human) [1], against MAPK14 (human) [2] and on MAPK14 (human) [3] was more than 500 nM throughout.

On to `NC(=O)C(c1cccc(-c2ccc(Cl)cc2Cl)n1)c1c(Cl)cccc1Cl` (centres undefined), for which the half-maximal inhibitory concentration (IC50) on MAPK14 (human) [1], at MAPK14 (human) [2] and against MAPK14 (human) [3] was more than 500 nM each time.

As for `O=C1NCN2N=C(Sc3ccccc3CO)C=CC2=C1c1c(Cl)cccc1Cl`, the half-maximal inhibitory concentration (IC50) was 250 to 500 nM against MAPK14 (human) [1], less than 250 nM at MAPK14 (human) [2] and less than 250 nM against MAPK14 (human) [3].

For the compound `Cc1cc(F)ccc1-c1cccc(C(C(N)=O)c2c(Cl)cc(N)cc2Cl)n1` (centres undefined), the half-inhibitory concentration (IC50) against MAPK14 (human) [1], on MAPK14 (human) [2] and at MAPK14 (human) [3] was more than 500 nM each time.

For the compound `O=C1NCN2N=C(Sc3ccc(F)cc3)C=CC2=C1c1c(Cl)cccc1Cl`, the half-inhibitory concentration (IC50) at MAPK14 (human) [1] is more than 500 nM; on MAPK14 (human) [2], 250 to 500 nM.

Turning to `O=C1NCN2N=C(Sc3ccccc3O)C=CC2=C1c1c(Cl)cccc1Cl`, the IC50 against MAPK14 (human) [1] was 250 to 500 nM; against MAPK14 (human) [2] it was less than 250 nM; on MAPK14 (human) [3], 250 to 500 nM.

For the compound `Cc1ccc(SC2=NN3CNC(=O)C(c4c(Cl)cccc4Cl)=C3C=C2)c(C)c1`, the IC50 at MAPK14 (human) [1], at MAPK14 (human) [2] and against MAPK14 (human) [3] was more than 500 nM each time.

Turning to `Cc1ccccc1-c1cccc(C(C(N)=O)c2c(Cl)cccc2Cl)n1` (centres undefined), the IC50 at MAPK14 (human) [4], at MAPK14 (human) [1], on MAPK14 (human) [2] and at MAPK14 (human) [3] was more than 500 nM throughout.

`CN(C)C=Nc1ccc(C2=C3C=CC(Sc4ccc(F)cc4Cl)=NN3CNC2=O)c(Cl)c1`: the results for the IC50 on MAPK14 (human) [1], at MAPK14 (human) [2] and at MAPK14 (human) [3] were 250 to 500 nM, 250 to 500 nM and more than 500 nM, respectively.

In the case of `Cc1cc(F)ccc1-c1cccc(N(C(N)=O)c2c(F)cccc2F)n1`, the IC50 against MAPK14 (human) [1], against MAPK14 (human) [2] and against MAPK14 (human) [3] was 250 to 500 nM each time.

Turning to `NC(=O)N(c1cccc(-c2ccccc2)n1)c1c(Cl)cccc1Cl`, the IC50 on MAPK14 (human) [1], on MAPK14 (human) [2] and against MAPK14 (human) [3] was more than 500 nM in each case.

For `Cc1ccccc1SC1=NN2CNC(=O)C(c3c(Cl)cccc3Cl)=C2C=C1`, the IC50 against MAPK14 (human) [1] is more than 500 nM; at MAPK14 (human) [2], 250 to 500 nM.

Regarding `Nc1cc(F)ccc1SC1=NN2CNC(=O)C(c3c(Cl)cccc3Cl)=C2C=C1`, the IC50 is 250 to 500 nM against MAPK14 (human) [1], less than 250 nM on MAPK14 (human) [2] and 250 to 500 nM on MAPK14 (human) [3].

For `NC(=O)C(c1cccc(-c2ccccc2C=NO)n1)c1c(Cl)cccc1Cl` (centres undefined), the IC50 against MAPK14 (human) [4], against MAPK14 (human) [1], against MAPK14 (human) [2] and against MAPK14 (human) [3] was more than 500 nM each time.

Take `N#Cc1ccccc1SC1=NN2CNC(=O)C(c3c(Cl)cccc3Cl)=C2C=C1`: the IC50 against MAPK14 (human) [1], against MAPK14 (human) [2] and against MAPK14 (human) [3] was more than 500 nM each time.

In the case of `Cc1ccccc1-c1cccc(N(C(N)=O)c2c(F)cccc2F)n1`, the figures for the IC50 on MAPK14 (human) [1], against MAPK14 (human) [2] and against MAPK14 (human) [3] were more than 500 nM, 250 to 500 nM and more than 500 nM, respectively.

As for `O=C1NCN2N=C(Sc3ccccc3Br)C=CC2=C1c1c(Cl)cccc1Cl`, the IC50 was more than 500 nM against MAPK14 (human) [1], 250 to 500 nM against MAPK14 (human) [2] and more than 500 nM at MAPK14 (human) [3].
